Measurements taken from patent US6306869A, “N-oxides” (Byk Gulden Lomberg Chemische Febrik GmbH, priority 1998, dated 2001).

Columns and labels:
[1] = target: PDE4 (cAMP-specific); assay: Inhibition of PDE isoenzymes: PDE4; type: biochemical; details: cytosol of human polymorphonuclear leukocytes (PMNL), cAMP as substrate, motapizone 1 μM present
[2] = target: T1, PDE3 (cGMP-inhibited) (Homo sapiens, UniProt Q14432); assay: Inhibition of PDE isoenzymes: PDE3; type: biochemical; details: homogenates of human blood platelets, cAMP as substrate; read-out: PDE3 [-loglC50,mol/l] (converted)
T1 construct: were investigated in homogenates of human blood platelets; from tissue; host or cells: homogenates of human blood platelets
T1 sequence (Q14432 whole entry): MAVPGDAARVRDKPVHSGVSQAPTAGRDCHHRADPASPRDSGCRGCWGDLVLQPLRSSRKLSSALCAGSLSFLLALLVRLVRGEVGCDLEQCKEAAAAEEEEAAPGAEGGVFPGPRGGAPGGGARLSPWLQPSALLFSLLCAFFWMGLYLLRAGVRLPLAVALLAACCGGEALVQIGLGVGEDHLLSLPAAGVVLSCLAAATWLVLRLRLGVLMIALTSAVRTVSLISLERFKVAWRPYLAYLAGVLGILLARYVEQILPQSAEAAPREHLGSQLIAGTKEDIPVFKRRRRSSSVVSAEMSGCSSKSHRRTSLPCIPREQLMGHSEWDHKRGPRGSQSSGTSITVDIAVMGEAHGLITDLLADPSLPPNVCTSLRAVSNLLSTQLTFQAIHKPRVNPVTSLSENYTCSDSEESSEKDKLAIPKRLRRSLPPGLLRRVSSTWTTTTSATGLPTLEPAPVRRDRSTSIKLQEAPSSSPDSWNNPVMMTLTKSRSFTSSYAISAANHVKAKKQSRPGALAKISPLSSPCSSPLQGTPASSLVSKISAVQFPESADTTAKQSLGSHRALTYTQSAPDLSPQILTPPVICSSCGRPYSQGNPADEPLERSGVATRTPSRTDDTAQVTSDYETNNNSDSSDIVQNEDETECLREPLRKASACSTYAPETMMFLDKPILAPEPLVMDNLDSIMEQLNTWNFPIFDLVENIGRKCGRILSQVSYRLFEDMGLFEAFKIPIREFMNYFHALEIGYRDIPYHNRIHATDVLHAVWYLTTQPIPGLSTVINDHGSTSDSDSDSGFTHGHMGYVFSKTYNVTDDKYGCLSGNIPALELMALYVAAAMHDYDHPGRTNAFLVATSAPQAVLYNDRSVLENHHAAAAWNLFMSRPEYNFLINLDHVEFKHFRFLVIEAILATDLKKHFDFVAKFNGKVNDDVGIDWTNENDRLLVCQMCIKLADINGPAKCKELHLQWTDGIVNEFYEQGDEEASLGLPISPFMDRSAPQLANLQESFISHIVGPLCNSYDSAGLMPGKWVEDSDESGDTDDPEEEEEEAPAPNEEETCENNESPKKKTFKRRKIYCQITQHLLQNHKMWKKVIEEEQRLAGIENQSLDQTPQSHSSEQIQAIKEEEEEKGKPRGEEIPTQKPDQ
Method: The PDE activity was determined according to Thompson et al. (1) with some modifications (2). The test samples contained 40 mM tris HCl (pH 7.4), 5 mM MgCl2, 0.5 μM cAMP or cGMP, [^3 H] cAMP or [3H]CGMP (about 50,000 cpm/sample), the PDE isoenzyme-specific additions described in greater detail below, the indicated concentrations of inhibitor and an aliquot of the enzyme solution in a total sample volume of 200 μl. […] After preincubation at 37° C. for 5 minutes, the reaction was started by addition of the substrate (cAMP or cGMP). The samples were incubated at 37° C. for a further 15 min. The reaction was terminated by addition of 50 μl of 0.2 N HCl. After cooling on ice for 10 minutes and addition of 25 μg of 5'-nucleotidase (snake venom from Crotalus atrox), the mixture was again incubated at 37° C. for 10 min and the samples were then applied to QAE Sephadex A-25 columns. The columns were eluted with 2 ml of 30 mM ammonium formate (pH 6.0). The radioactivity of the eluate was measured and corrected by the corresponding blank values. The proportion of hydrolysed nucleotide in no case exceeded 20% of the original substrate concentration.
PDE3 (cGMP-inhibited) and PDE5 (cGMP-specific) were investigated in homogenates of human blood platelets [Schudt et al. (4)] using cAMP or cGMP as a substrate.
The IC50 values were determined from the concentration-inhibition curves by nonlinear regression using the GraphPad InPlot™ program (GraphPad Software Inc., […], USA).

SMILES | PDE4 [-loglC50,mol/l] [1] | IC50 [2] [µM]
CCCCN(CCCC)C(=O)c1ccc(C2=N[C@@H]3CC[N+](C)([O-])C[C@@H]3c3cc(OCC)c(OC)cc32)cc1 (relative stereo) [Compound 2, cis-9-ethoxy-2-methyl-8-methoxy-6-(4-dibutylaminocarbonylphenyl)-1 ,2,3,4,4a,10b-hexahydrobenzo[c][1,6]naphthyridine N-2-oxide] | 7.98 | 1.07
CCCCN(CCCC)C(=O)c1ccc(C2=N[C@@H]3CC[N+](C)([O-])C[C@@H]3c3cc(OCCC)c(OC)cc32)cc1 (relative stereo) [Compound 3, cis-8-methoxy-2-methyl-9-propoxy-6-(4-dibutylaminocarbonylphenyl)-1 ,2,3,4,4a,10b-hexahydrobenzo[c][1,6]naphthyridine N-2-oxide] | 7.53 | 2.09
CCOc1cc2c(cc1OC)C(c1ccc(C(=O)N(C(C)C)C(C)C)cc1)=N[C@@H]1CC[N+](C)([O-])C[C@H]21 (single isomer, unassigned) [Compound 1, cis-9-ethoxy-8-methoxy-2-methyl-6-(4-diisopropylaminocarbonylphenyl)-1,2,3,4,4a,10b-hexahydrobenzo[c][1,6]naphthyridine N-2-oxide] | 7.20 | 0.776
